Measurements: the NIST ThermoML archive (doi:10.1016/j.fluid.2016.02.006)
Numbers after ± are expanded uncertainties.

Tests used:
[1] = Liquid, Vibrating tube method
[2] = xn = mol fraction of the nth substance listed; conditions: 101 kPa, Liquid, Vibrating tube method

`c1ccccc1` [benzene] showed a mass density ([1]; 298.15 K, 101.33 kPa) of 873.71 ± 2 kg/m3, a mass density ([1]; 308.15 K, 101 kPa) of 862.98 ± 2 kg/m3 and a mass density ([1]; 318.15 K, 101 kPa) of 852.16 ± 2 kg/m3.

With `c1ccccc1` [benzene] + CCCCCCCC the mass density ([2]; 308.15 K, x2 = 0) was 862.98 ± 2 kg/m3 and the mass density ([2]; 318.15 K, x2 = 0) was 852.16 ± 2 kg/m3.

`CCCC[N+](C)(C)C.O=S(=O)([N-]S(=O)(=O)C(F)(F)F)C(F)(F)F` [butyltrimethylammonium bis(trifluoromethylsulfonyl)imide] gave a mass density ([1]; 298.15 K, 101.33 kPa) of 1392.99 ± 6 kg/m3.

Work on `CCCCCCCCCC` [decane] yielded a mass density ([1]; 298.15 K, 101.33 kPa) of 726.15 ± 2 kg/m3.

Work on `CCCCCCCCCCCC` [dodecane] yielded a mass density ([1]; 298.15 K, 101.33 kPa) of 745.28 ± 2 kg/m3.

`CCCCCCCC` [octane] showed a mass density ([1]; 298.15 K, 101.33 kPa) of 698.86 ± 2 kg/m3, a mass density ([1]; 308.15 K, 101 kPa) of 690.72 ± 2 kg/m3 and a mass density ([1]; 318.15 K, 101 kPa) of 682.5 ± 2 kg/m3.

Compound `CCCCCCCC` [octane] + c1ccccc1 has a mass density ([2]; 308.15 K, x1 = 0.0959) of 832.4 ± 4.5 kg/m3, a mass density ([2]; 308.15 K, x1 = 0.1937) of 806.43 ± 3.9 kg/m3 and a mass density ([2]; 308.15 K, x1 = 0.3048) of 781.74 ± 3.5 kg/m3. It also gave a mass density ([2]; 308.15 K, x1 = 0.41) of 762.04 ± 3.2 kg/m3, a mass density ([2]; 308.15 K, x1 = 0.5097) of 745.81 ± 2.9 kg/m3 and a mass density ([2]; 308.15 K, x1 = 0.6058) of 732.34 ± 2.7 kg/m3. The mass density ([2]; 308.15 K, x1 = 0.711) was 719.36 ± 2.6 kg/m3, the mass density ([2]; 308.15 K, x1 = 0.8101) was 708.42 ± 2.5 kg/m3 and the mass density ([2]; 308.15 K, x1 = 0.9076) was 698.91 ± 2.4 kg/m3. The mass density ([2]; 308.15 K, x1 = 1) was 690.72 ± 2 kg/m3, the mass density ([2]; 318.15 K, x1 = 0.0988) was 821.33 ± 4.4 kg/m3 and the mass density ([2]; 318.15 K, x1 = 0.1982) was 796.48 ± 3.9 kg/m3. For the same compound, the mass density ([2]; 318.15 K, x1 = 0.3072) was 771.56 ± 3.5 kg/m3, the mass density ([2]; 318.15 K, x1 = 0.407) was 753.05 ± 3.1 kg/m3 and the mass density ([2]; 318.15 K, x1 = 0.5096) was 736.77 ± 2.9 kg/m3. The mass density ([2]; 318.15 K, x1 = 0.598) was 724.35 ± 2.7 kg/m3, the mass density ([2]; 318.15 K, x1 = 0.7048) was 711.47 ± 2.6 kg/m3 and the mass density ([2]; 318.15 K, x1 = 0.8039) was 700.49 ± 2.5 kg/m3. The mass density ([2]; 318.15 K, x1 = 0.9005) was 691.19 ± 2.4 kg/m3 and the mass density ([2]; 318.15 K, x1 = 1) was 682.5 ± 2 kg/m3.

`CCCC[N+](C)(CCCC)CCCC.O=S(=O)([N-]S(=O)(=O)C(F)(F)F)C(F)(F)F` [tributylmethylammonium bis((trifluoromethyl)sulfonyl)imide] gave a mass density ([1]; 298.15 K, 101.33 kPa) of 1261.65 ± 6 kg/m3.
